Test results: patent publication US7217726B2, “Antibacterial agents” (Orchid Chemicals & Pharmaceuticals Limited, priority 2002, dated 2007)
In brackets after ≈: the same amount, converted by molar mass.

Key:
[1] = test system: E. faecalis ATCC 29212; test: Agar Dilution Method MIC, E. faecalis ATCC 29212; type: cell-based; conditions: Enterococcus faecalis, ATCC29212, Mueller Hinton Agar, 35° Celsius, 20 hours, read-out: Minimum Inhibitory Concentration (MIC in μg/ml)
Method: (§1) Briefly, the compounds of invention were weighed, dissolved in Dimethyl Sulfoxide, serially diluted in the same solvent and then incorporated into molten Mueller Hinton Agar in a petridish before solidification, with each petridish containing a different concentration of a compound.
(§2) The Bacterial Inoculum was prepared by touching the tops of 3 to 5 well isolated bacterial colonies with the same morphological appearance from an 18 hour old culture with an inoculating loop, transfering the growth to a tube containing 5 ml of normal saline and adjusting the turbidity of the saline suspension to 0.5 Macfarland Turbidity Standard equivalent to a bacterial population of 1.5×10^8 colony forming units (CFU) per millilitre of suspension.
(§3) The bacterial inoculum prepared in the above manner was inoculated onto petri dishes containing Mueller Hinton Agar which had earlier been incorporated with different dilutions of the compounds of invention by a Multipoint Inoculator with each inoculum spot containing approximately 1×10^4 colony forming units (CFU) of bacteria.
(§4) The inoculated petridishes were incubated at 35° Celsius in an ambient atmosphere for 20 hours. Petridishes containing different concentrations of Vancomycin and Oxacillin and inoculated with Staphylococcus aureus, Coagulase Negative Staphylococci and Enterococci were incubated for 24 hours.

[2] = test system: S. aureus MRO 00030; test: Agar Dilution Method MIC, S. aureus MRO 00030; type: cell-based; conditions: Staphylococcus aureus, MRO00030, Mueller Hinton Agar, 35° Celsius, 20 hours, read-out: Minimum Inhibitory Concentration (MIC in μg/ml)
Method: as §1, §2, §3, §4

[3] = test system: S. aureus MRO 00001; test: Agar Dilution Method MIC, S. aureus MRO 00001; type: cell-based; conditions: Staphylococcus aureus, MRO00001, Mueller Hinton Agar, 35° Celsius, 20 hours, read-out: Minimum Inhibitory Concentration (MIC in μg/ml)
Method: as §1, §2, §3, §4

[4] = test system: M. catarrhalis ATCC 43627; test: Agar Dilution Method MIC, M. catarrhalis ATCC 43627; type: cell-based, Morexella catarrhalis; conditions: Moraxella catarrhalis, ATCC43627, Mueller Hinton Agar, 35° Celsius, 20 hours, read-out: Minimum Inhibitory Concentration (MIC in μg/ml)
Method: as §1, §2, §3, §4

[5] = test system: M. catarrhalis ATCC 43628; test: Agar Dilution Method MIC, M. catarrhalis ATCC 43628; type: cell-based, Morexella catarrhalis; conditions: Moraxella catarrhalis, ATCC43628, Mueller Hinton Agar, 35° Celsius, 20 hours, read-out: Minimum Inhibitory Concentration (MIC in μg/ml)
Method: as §1, §2, §3, §4

[6] = test system: E. fecalis MRO 04045; test: Agar Dilution Method MIC, E. fecalis MRO 04045; type: cell-based; conditions: Enterococcus faecalis, MRO04045, Mueller Hinton Agar, 35° Celsius, 20 hours, read-out: Minimum Inhibitory Concentration (MIC in μg/ml)
Method: as §1, §2, §3, §4

[7] = test system: E. faecalis ATCC 51299; test: Agar Dilution Method MIC, E. faecalis ATCC 51299; type: cell-based; conditions: Enterococcus faecalis, ATCC51299, Mueller Hinton Agar, 35° Celsius, 20 hours, read-out: Minimum Inhibitory Concentration (MIC in μg/ml)
Method: as §1, §2, §3, §4

[8] = test system: S. aureus MRO 00048; test: Agar Dilution Method MIC, S. aureus MRO 00048; type: cell-based; conditions: Staphylococcus aureus, MRO00048, Mueller Hinton Agar, 35° Celsius, 20 hours, read-out: Minimum Inhibitory Concentration (MIC in μg/ml)
Method: as §1, §2, §3, §4

[9] = test system: M. catarrhalis ATCC 43617; test: Agar Dilution Method MIC, M. catarrhalis ATCC 43617; type: cell-based, Morexella catarrhalis; conditions: Moraxella catarrhalis, ATCC43617, Mueller Hinton Agar, 35° Celsius, 20 hours, read-out: Minimum Inhibitory Concentration (MIC in μg/ml)
Method: as §1, §2, §3, §4

[10] = test system: S. aureus MRO 00013; test: Agar Dilution Method MIC, S. aureus MRO 00013; type: cell-based; conditions: Staphylococcus aureus, MRO00013, Mueller Hinton Agar, 35° Celsius, 20 hours, read-out: Minimum Inhibitory Concentration (MIC in μg/ml)
Method: as §1, §2, §3, §4

[11] = test system: S. epidermidis MRO 02046; test: Agar Dilution Method MIC, S. epidermidis MRO 02046; type: cell-based; conditions: Staphylococcus epidermidis, MRO02046, Mueller Hinton Agar, 35° Celsius, 20 hours, read-out: Minimum Inhibitory Concentration (MIC in μg/ml)
Method: as §1, §2, §3, §4

[12] = test system: S. aureus MRO 00003; test: Agar Dilution Method MIC, S. aureus MRO 00003; type: cell-based; conditions: Staphylococcus aureus, MRO00003, Mueller Hinton Agar, 35° Celsius, 20 hours, read-out: Minimum Inhibitory Concentration (MIC in μg/ml)
Method: as §1, §2, §3, §4

[13] = test system: S. aureus ATCC 43300; test: Agar Dilution Method MIC, S. aureus ATCC 43300; type: cell-based; conditions: Staphylococcus aureus, ATCC43300, Mueller Hinton Agar, 35° Celsius, 20 hours, read-out: Minimum Inhibitory Concentration (MIC in μg/ml)
Method: as §1, §2, §3, §4

[14] = test system: S. aureus ATCC 29213; test: Agar Dilution Method MIC, S. aureus ATCC 29213; type: cell-based; conditions: Staphylococcus aureus, ATCC29213, Mueller Hinton Agar, 35° Celsius, 20 hours, read-out: Minimum Inhibitory Concentration (MIC in μg/ml)
Method: as §1, §2, §3, §4

[15] = test system: S. aureus MRO 00055; test: Agar Dilution Method MIC, S. aureus MRO 00055; type: cell-based; conditions: Staphylococcus aureus, MRO00055, Mueller Hinton Agar, 35° Celsius, 20 hours, read-out: Minimum Inhibitory Concentration (MIC in μg/ml)
Method: as §1, §2, §3, §4

[16] = test system: S. aureus MRO 00059; test: Agar Dilution Method MIC, S. aureus MRO 00059; type: cell-based; conditions: Staphylococcus aureus, MRO00059, Mueller Hinton Agar, 35° Celsius, 20 hours, read-out: Minimum Inhibitory Concentration (MIC in μg/ml)
Method: as §1, §2, §3, §4

For `CC(=O)NC[C@H]1CN(c2ccc(N3CCN(C(=S)CN)CC3)c(F)c2)C(=O)O1.Cl`, the melting point was 202 to 204 °C.
In the case of `CC(=S)NC[C@H]1CN(c2ccc(N3CCN(C(=S)c4ncc[nH]4)CC3)c(F)c2)C(=O)O1` [Example 22, (S)-N-[3-[3-Fluoro-4-[4-(imidazol-2-ylthiocarbonyl)piperazin-1-yl]phenyl]-2-oxooxazolidin-5-ylmethyl]thioacetamide], the MIC [1] was 0.5 µg/mL (≈ 1.08 µM), the MIC [2] was 0.5 µg/mL (≈ 1.08 µM) and the MIC [3] was 0.5 µg/mL (≈ 1.08 µM). For the same molecule, the MIC [4] was 1 µg/mL (≈ 2.16 µM), the MIC [5] was 1 µg/mL (≈ 2.16 µM) and the MIC [6] was 1 µg/mL (≈ 2.16 µM). For the same molecule, the MIC [7] was less than 0.25 µg/mL, the MIC [8] was less than 0.25 µg/mL and the MIC [9] was 1 µg/mL (≈ 2.16 µM). The MIC [10] was 1 µg/mL (≈ 2.16 µM), the MIC [11] was less than 0.25 µg/mL and the MIC [12] was 0.5 µg/mL (≈ 1.08 µM). For the same molecule, the MIC [13] was 0.5 µg/mL (≈ 1.08 µM), the MIC [14] was 0.5 µg/mL (≈ 1.08 µM) and the MIC [15] was 1 µg/mL (≈ 2.16 µM). It also gave an MIC [16] of 0.5 µg/mL (≈ 1.08 µM).
For `CC(=S)NC[C@H]1CN(c2ccc(N3CCN(C(=O)Nc4ccc([N+](=O)[O-])cc4)CC3)c(F)c2)C(=O)O1` [Example 46], the MIC [1] was 0.25 µg/mL (≈ 0.484 µM), the MIC [2] was 0.5 µg/mL (≈ 0.968 µM) and the MIC [3] was 0.25 µg/mL (≈ 0.484 µM). The MIC [4] was 2 µg/mL (≈ 3.87 µM), the MIC [5] was 2 µg/mL (≈ 3.87 µM) and the MIC [6] was 0.25 µg/mL (≈ 0.484 µM). The MIC [7] was 0.25 µg/mL (≈ 0.484 µM), the MIC [8] was 0.25 µg/mL (≈ 0.484 µM) and the MIC [9] was 2 µg/mL (≈ 3.87 µM). For the same molecule, the MIC [10] was 0.5 µg/mL (≈ 0.968 µM), the MIC [11] was 0.25 µg/mL (≈ 0.484 µM) and the MIC [12] was 0.5 µg/mL (≈ 0.968 µM). It also gave an MIC [13] of 0.25 µg/mL (≈ 0.484 µM), an MIC [14] of 0.5 µg/mL (≈ 0.968 µM) and an MIC [15] of 0.5 µg/mL (≈ 0.968 µM). The MIC [16] was 0.5 µg/mL (≈ 0.968 µM).
